Reference: US11352371B2, “Thienopyrimidine derivatives as ACC inhibitors and uses thereof” (Gilead Sciences, Inc., priority 2019, dated 2022)

Assays:
[1] = Preliminary study of systemic blood clearance after intravenous administration; type: in vivo; conditions: monkeys, preliminary studies
[2] = system: HepG2 cells; assay: In vitro De Novo Lipogenesis (DNL) assay, 13C-acetate incorporation into palmitic acid; type: cell-based; conditions: Homo sapiens, 1 hour preincubation, 24 hours with 10 mM 13C-labeled acetate
Summary of the method: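 HepG2 cells were preincubated with compound for 1 h, then given 10 mM 13C-acetate for 24 h at 37 °C. Lipids were saponified with KOH/ethanol at 70 °C, and palmitate carrying 3–7 13C was quantified by RapidFire-QTOF MS. This signal was normalized to oleate and plotted against compound concentration.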

[3] = Rat liver/plasma ratio determination; type: in vivo, male Sprague-Dawley (SD) rats; conditions: male SD rats, single oral dose 5 mg/kg or 10 mg/kg
Protocol: Liver to plasma (L/P) ratios of certain example compounds were determined in male Sprague-Dawley (SD) rats 2 hours and 24 hours after their administration.
The in vivo phases of the rat L/P ratio determinations for example compounds were conducted at Covance Laboratories (Madison, Wis.) or Charles River Laboratories (Worcester, Wash.). Animals were housed and handled in accordance with the Guide for the Care and Use of Laboratory Animals, Institute of Laboratory Animal Resources. The protocols were reviewed and approved by Institutional Animal Care and Use Committees (IACUC). Male Sprague-Dawley (SD) rats weighing approximately 300 g were fasted overnight prior to dosing and up to 4 hours after dosing. Each example compound was dosed at a single dose at 5 mg/kg or 10 mg/kg orally by gavage to male SD rats (n=3 rats/group). The aqueous formulation contained ethyl alcohol and polyethylene glycol 300. Approximately 100 μL plasma and 0.5 g liver samples were collected from each animal either 2 hours or 24 hours after dosing. The liver samples were homogenized by hard tissue homogenizer probes (Omni International, Kennesaw, Ga.) with 4× extraction buffer. For LC-MS/MS analysis, plasma and liver samples were prepared through protein precipitation extraction and analyzed on a Scitex API 5500 or 6500 LC-MS/MS instrument (Applied Biosystems, Foster City, Calif.). Analyte was eluted on a 1.7 μm 50×2.1 mm Acquity UPLC BEH C18 column (Waters, Milford, Mass.) using mobile phase containing 0.1% formic acid and a linear gradient from 55% to 95% acetonitrile at a flow rate of 800 μL/min. A liver/plasma ratio for each compound was calculated using the liver and plasma concentrations at the corresponding time point (2 hours or 24 hours). Noncompartmental pharmacokinetic parameters were calculated using Phoenix 32 (Pharsight Corporation, Mountain View, Calif.).
To assess the liver loading potential of the compounds, rat liver/plasma ratios (Rat L/P Ratio) values were determined for example compounds and are listed below in Table 1 for 2 hour and 24 hour timepoints (Rat L/P Ratio (2h/24h)).

[4] = system: OATP; assay: Liver partitioning / plasma PK study with and without rifampicin (pan-OATP inhibitor); type: in vivo, cynomolgus monkeys; conditions: male, cynomolgus monkey, plasma, with rifampicin 30 mg/kg IV (pan-OATP inhibitor), cynomolgus monkeys, 5 mg/kg oral, Pretreatment with Rifampicin 30 mg/kg
Protocol: (§1) To further investigate the liver partitioning properties of the compound of Example 1, the compound was co-administered with rifampicin (RIF, pan-OATP inhibitor) in cynomolgus monkeys in vivo and hepatic uptake experiments were performed in monkey hepatocytes in vitro. […] Therefore the coadministration experiments as described below in more detail were conducted to administer Example 1 compound orally (5 mg/kg) in the absence and presence of IV administration of RIF (30 mg/kg).
(§2) To assess the OATP (organic anion transporting polypeptides)-mediated liver specific delivery of the Example 1 compound, plasma pharmacokinetics (PK) was evaluated in cynomolgus monkeys. The in-life phase of the cyno PK studies was conducted at Covance Laboratories (Madison, Wis.). Animals were housed and handled in accordance with the Guide for the Care and Use of Laboratory Animals, Institute of Laboratory Animal Resources. The protocols were reviewed and approved by the Institutional Animal Care and Use Committees (IACUC). Male Cynomolgus monkeys weighing approximately 3 kg were used for the in-life portion of the PK studies. The animals were fasted overnight prior to dosing and up to 4 hours after dosing. The animals were administered with the test compound (Example 1) alone or coadministered with 30 mg/kg rifampicin prior to test compound administration at 5 mg/kg via oral gavage (3 monkeys per group). The aqueous formulation contains dimethyl sulfoxide, kolliphor, labrasol and propylene glycol. Approximately 0.5 mL blood samples were collected from each animal and analyzed for test compound (Example 1) concentrations. For LC-MS/MS analysis, plasma samples were prepared through protein precipitation extraction and analyzed on a Sciex API 5500 LC-MS/MS instrument (Applied Biosystems, Foster City, Calif.). Analyte was eluted on a 1.7 μm 50×2.1 mm Acquity UPLC BEH C18 column (Waters, Milford, Mass.) using mobile phases containing 0.1% formic acid and a linear gradient from 60% to 95% acetonitrile at a flow rate of 800 μL/min. Noncompartmental pharmacokinetic parameters were calculated using Phoenix 32 (Pharsight Corporation, Mountain View, Calif.). […]

[5] = as above; type: in vivo, cynomolgus monkeys
Protocol: as §1, §2

[6] = system: monkey hepatocytes; assay: In vitro hepatic uptake in monkey hepatocytes; type: in vitro ADME; conditions: data not shown
Protocol: as §1

[7] = decrease (↓) with rifampicin pretreatment vs no pretreatment
[8] = increase (↑) with rifampicin pretreatment vs no pretreatment
[9] = male, cynomolgus monkey, plasma, cynomolgus monkeys, 5 mg/kg oral, No-Pre-treatment

systemic blood clearance [1]: higher than hepatic blood flow
EC50 [2]: 1 nM
L/P Ratio (2 h) ([3]; liver to plasma concentration 2 hours after dosing): 520
L/P Ratio (24 h) ([3]; liver to plasma concentration 24 hours after dosing): 1526
AUC [4]: 48.5 µM·h
CL/F [4]: 2.5 mL/min/kg
Cmax [4]: 14 µM
Vd/F ([4]; read-out: Vz/F): 0.44 L/kg
plasma exposures with RIF treatment relative to monkeys not treated with RIF ([5]; 5 mg/kg oral, RIF 30 mg/kg IV): significantly increased
CL/F Fold-Change [5, 7]: ↓ 299
Vz/F Fold-Change [5, 7]: ↓ 165
AUC Fold-Change [5, 8]: ↑ 165
Cmax Fold-Change [5, 8]: ↑ 86
AUC [5, 9]: 0.294 µM·h
CL/F [5, 9]: 748 mL/min/kg
Cmax [5, 9]: 0.162 µM
Vd/F ([5]; male, cynomolgus monkey, plasma, cynomolgus monkeys, 5 mg/kg oral, No-Pre-treatment, read-out: Vz/F): 72.7 L/kg
hepatic uptake [6]: strong hepatic uptake
Structure (SMILES): COc1ccccc1[C@H](Cn1c(=O)n(C(C)(C)C(=O)NS(=O)(=O)C2(C)CC2)c(=O)c2c(C)c(-c3ncco3)sc21)O[C@@H]1C[C@H]2CC[C@@H](C1)O2 [Example 1, 2-(1-((R)-2-(((1R,3s,5S)-8-oxabicyclo[3.2.1]octan-3-yl)oxy)-2-(2-methoxyphenyl)ethyl)-5-methyl-6-(oxazol-2-yl)-2,4-dioxo-1,4-dihydrothieno[2,3-d]pyrimidin-3(2H)-yl)-2-methyl-N-((1-methylcyclopropyl)sulfonyl)propanamide]
